Data as given in PubChem BioAssay AID290 (DTP/NCI, 2004).
Where “and” joins values, the source holds several entries; their conditions need not be identical. Equal values may be shown once. Results filed as inconclusive are left out.

System: mice, P1798 lymphosarcoma sc, survival or tumor weight T/C
Assay: NCI In Vivo Anticancer Drug Screen. Data for tumor model P1798 Lymphosarcoma (subcutaneous) in unknown mice
Protocol: The antitumor activity of compounds was measured in mice bearing transplantable tumors. Survival or tumor size were measured and the results are expressed as the measurement made in the treated group (T) divided by the measurement made in the vehicle treated control group (C). The tumor model used in this assay is P1798 Lymphosarcoma (subcutaneous) in unknown mice

[1] = endpoint: mean tumor weight, dose: 1.25 mg/kg/injection, schedule: Q01DX010 (ip), vehicle: saline, higher = larger tumour
[2] = endpoint: mean tumor weight, dose: 2.5 mg/kg/injection, schedule: Q01DX010 (ip), vehicle: saline, higher = larger tumour
[3] = endpoint: mean tumor weight, dose: 6.25 mg/kg/injection, schedule: Q01DX010 (ip), vehicle: carboxymethylcellulose (CMC), higher = larger tumour
[4] = endpoint: mean tumor weight, dose: 12.5 mg/kg/injection, schedule: Q01DX010 (ip), vehicle: carboxymethylcellulose (CMC), higher = larger tumour
[5] = endpoint: mean tumor weight, dose: 3.75 mg/kg/injection, schedule: Q01DX010 (ip), vehicle: carboxymethylcellulose (CMC), higher = larger tumour
[6] = endpoint: mean tumor weight, dose: 7.5 mg/kg/injection, schedule: Q01DX010 (ip), vehicle: carboxymethylcellulose (CMC), higher = larger tumour

## O=C(Nc1ccc(C2=NCCCN2)cc1)c1ccc(NC(=O)c2ccc(C3=NCCCN3)cc2)cc1
endpoint: mean tumor weight, dose: 2.0 mg/kg/injection, schedule: Q01DX010 (ip), vehicle: carboxymethylcellulose (CMC), higher = larger tumour
  T/C: 73 % of control
endpoint: mean tumor weight, dose: 4.0 mg/kg/injection, schedule: Q01DX010 (ip), vehicle: carboxymethylcellulose (CMC), higher = larger tumour
  T/C: 50 % of control
endpoint: mean tumor weight, dose: 8.0 mg/kg/injection, schedule: Q01DX010 (ip), vehicle: carboxymethylcellulose (CMC), higher = larger tumour
  T/C: 15 % of control

## CN(/N=N/N(C)c1ccccc1)c1ccccc1
endpoint: mean tumor weight, dose: 15.6 mg/kg/injection, schedule: Q01DX010 (ip), vehicle: carboxymethylcellulose (CMC), higher = larger tumour
  T/C: 59 % of control
endpoint: mean tumor weight, dose: 31.3 mg/kg/injection, schedule: Q01DX010 (ip), vehicle: carboxymethylcellulose (CMC), higher = larger tumour
  T/C: 44 % of control
endpoint: mean tumor weight, dose: 62.5 mg/kg/injection, schedule: Q01DX010 (ip), vehicle: carboxymethylcellulose (CMC), higher = larger tumour
  T/C: 39 % of control
endpoint: mean tumor weight, dose: 125.0 mg/kg/injection, schedule: Q01DX010 (ip), vehicle: carboxymethylcellulose (CMC), higher = larger tumour
  T/C: 58 % of control

## S=P(N1CC1)(N1CC1)N1CC1
endpoint: mean tumor weight, dose: 0.63 mg/kg/injection, schedule: Q01DX010 (ip), vehicle: saline, higher = larger tumour
  T/C: 95 % of control
[1]
  T/C: 64 % of control
[2]
  T/C: 24 % of control
endpoint: median survival time, dose: 0.75 mg/kg/injection, schedule: Q01DX010 (sc), vehicle: water, higher = longer survival
  T/C: 97 % of control
endpoint: median survival time, dose: 1.5 mg/kg/injection, schedule: Q01DX010 (sc), vehicle: water, higher = longer survival
  T/C: 105 % of control
endpoint: median survival time, dose: 3.0 mg/kg/injection, schedule: Q01DX010 (sc), vehicle: water, higher = longer survival
  T/C: 103 % of control
endpoint: median survival time, dose: 6.0 mg/kg/injection, schedule: Q01DX010 (sc), vehicle: water, higher = longer survival
  T/C: 47 % of control
endpoint: median survival time, dose: 12.0 mg/kg/injection, schedule: Q01DX010 (sc), vehicle: water, higher = longer survival
  T/C: 27 % of control

## Nc1ncnc2[nH]ncc12
[3]
  T/C: 73 % of control
[4]
  T/C: 64 % of control

## Nc1nc(=S)c2ncn(C3OC(CO)C(O)C3O)c2[nH]1 (stereo unspecified)
endpoint: mean tumor weight, dose: 0.31 mg/kg/injection, schedule: Q01DX010 (ip), vehicle: carboxymethylcellulose (CMC), higher = larger tumour
  T/C: 79 % of control
endpoint: mean tumor weight, dose: 0.63 mg/kg/injection, schedule: Q01DX010 (ip), vehicle: carboxymethylcellulose (CMC), higher = larger tumour
  T/C: 71 % of control
endpoint: mean tumor weight, dose: 1.25 mg/kg/injection, schedule: Q01DX010 (ip), vehicle: carboxymethylcellulose (CMC), higher = larger tumour
  T/C: 50 % of control
endpoint: mean tumor weight, dose: 2.0 mg/kg/injection, schedule: Q01DX010 (ip), vehicle: saline, higher = larger tumour
  T/C: 55 % of control
endpoint: mean tumor weight, dose: 2.5 mg/kg/injection, schedule: Q01DX010 (ip), vehicle: carboxymethylcellulose (CMC), higher = larger tumour
  T/C: 31 % of control
endpoint: mean tumor weight, dose: 4.0 mg/kg/injection, schedule: Q01DX010 (ip), vehicle: saline, higher = larger tumour
  T/C: 63 % of control

## Clc1ccc(C(c2ccccc2Cl)C(Cl)Cl)cc1 (stereo unspecified)
endpoint: mean tumor weight, dose: 62.5 mg/kg/injection, schedule: Q01DX010 (sc), vehicle: steriod suspending solution, higher = larger tumour
  T/C: 85 % of control
endpoint: mean tumor weight, dose: 125.0 mg/kg/injection, schedule: Q01DX010 (sc), vehicle: steriod suspending solution, higher = larger tumour
  T/C: 73 % of control
endpoint: mean tumor weight, dose: 250.0 mg/kg/injection, schedule: Q01DX010 (sc), vehicle: steriod suspending solution, higher = larger tumour
  T/C: 105 % of control
endpoint: mean tumor weight, dose: 500.0 mg/kg/injection, schedule: Q01DX010 (sc), vehicle: steriod suspending solution, higher = larger tumour
  T/C: 103 % of control

## Cc1cc(N(CCCl)CCCl)ccc1N=Nc1ccccc1C(=O)O
[5]
  T/C: 40 % of control
[6]
  T/C: 26 % of control

## C[C@H]1C(=O)O[C@@H]2CCN3CC=C(COC(=O)[C@](C)(O)[C@@]1(C)O)[C@H]23
[5]
  T/C: 73 % of control
[6]
  T/C: 68 % of control
endpoint: mean tumor weight, dose: 15.0 mg/kg/injection, schedule: Q01DX010 (ip), vehicle: carboxymethylcellulose (CMC), higher = larger tumour
  T/C: 44 % of control
endpoint: mean tumor weight, dose: 30.0 mg/kg/injection, schedule: Q01DX010 (ip), vehicle: carboxymethylcellulose (CMC), higher = larger tumour
  T/C: 23 % of control

## CC12C=CC(=O)C=C1CCC1C3CCC(O)(C(=O)CO)C3(C)CC(O)C12F (stereo unspecified)
endpoint: mean tumor weight, dose: 3.0 mg/kg/injection, schedule: Q01DX010 (sc), vehicle: steriod suspending solution, higher = larger tumour
  T/C: 85 % of control
endpoint: mean tumor weight, dose: 6.0 mg/kg/injection, schedule: Q01DX010 (sc), vehicle: steriod suspending solution, higher = larger tumour
  T/C: 58 % of control
endpoint: mean tumor weight, dose: 12.0 mg/kg/injection, schedule: Q01DX010 (sc), vehicle: steriod suspending solution, higher = larger tumour
  T/C: 56 % of control

## N=[N+]=CC(=O)OCC(N)C(=O)O (stereo unspecified)
[1]
  T/C: 98 % of control
[2]
  T/C: 56 % of control
endpoint: mean tumor weight, dose: 5.0 mg/kg/injection, schedule: Q01DX010 (ip), vehicle: saline, higher = larger tumour
  T/C: 17 % of control and 24 % of control

## S=P(N1CCOCC1)(N1CC1)N1CC1
[3]
  T/C: 82 % of control
[4]
  T/C: 60 % of control
